Laboratory results taken from the NIST ThermoML archive (doi:10.1021/je050460d).
Numbers after ± are expanded uncertainties.

Experiment: xn = mol fraction of the nth substance listed
Details: 101 kPa, Liquid; for viscosity: Capillary tube (Ostwald / Ubbelohde) method; for mass density: Vibrating tube method

CCCCCCCC[n+]1ccn(C)c1.[Cl-] [1-methyl-3-octylimidazolium chloride] + O
Details | mass density, 298.15 K [kg/m3] | mass density, 313.15 K [kg/m3] | mass density, 328.15 K [kg/m3] | mass density, 343.15 K [kg/m3] | viscosity, 298.15 K [mPa·s] | viscosity, 313.15 K [mPa·s] | viscosity, 328.15 K [mPa·s] | viscosity, 343.15 K [mPa·s]
x2 = 0 | 1008.82 ± 2.7 | 1000.2 ± 2.6 | 991.67 ± 2.6 | 983.24 ± 2.6 | 20883 ± 2800 | 4066 ± 400 | 1091 ± 78 | 387.2 ± 20
x2 = 0.1484 | 1009.61 ± 2.3 | 1000.98 ± 2.3 | 992.42 ± 2.3 | 983.87 ± 2.3 | 5570 ± 580 | 1470 ± 110 | 484.6 ± 26 | 200.1 ± 7.5
x2 = 0.203 | 1009.99 ± 2.2 | 1001.35 ± 2.2 | 992.77 ± 2.2 | 984.21 ± 2.1 | 3815 ± 370 | 1097 ± 77 | 393.5 ± 20 | 165.4 ± 5.6
x2 = 0.4076 | 1011.83 ± 1.8 | 1003.2 ± 1.8 | 994.4 ± 1.7 | 985.6 ± 1.7 | 1325 ± 97 | 387.9 ± 19 | 170.8 ± 5.5 | 84.75 ± 1.8
x2 = 0.5334 | 1012.7 ± 1.5 | 1003.76 ± 1.5 | 994.81 ± 1.5 | 985.96 ± 1.5 | 921.1 ± 60 | 337.9 ± 15 | 147.7 ± 4.1 | 74.31 ± 1.3
x2 = 0.6807 | 1012.37 ± 1.2 | 1003.16 ± 1.2 | 993.98 ± 1.2 | 984.8 ± 1.1 | 433 ± 21 | 175.5 ± 5.2 | 83.26 ± 1.4 | 44.23 ± 0.56
x2 = 0.8185 | 1009.16 ± 0.89 | 1000.09 ± 0.88 | 990.76 ± 0.87 | 981.11 ± 0.86 | 193.4 ± 6 | 83.87 ± 1.2 | 42.22 ± 0.43 | 24.22 ± 0.25
x2 = 0.8803 | 1006.63 ± 0.76 | 997.6 ± 0.75 | 988.16 ± 0.74 | 978.39 ± 0.74 | 80.77 ± 1.1 | 38.02 ± 0.36 | 20.45 ± 0.19 | 12.17 ± 0.12
x2 = 0.9307 | 1003.69 ± 0.65 | 995.12 ± 0.64 | 985.89 ± 0.64 | 976.15 ± 0.63 | 22.48 ± 0.2 | 13.27 ± 0.12 | 8.18 ± 0.07 | 5.33 ± 0.05
x2 = 0.9635 | 1001.1 ± 0.58 | 993.58 ± 0.58 | 985.06 ± 0.57 | 975.71 ± 0.57 | 5.71 ± 0.05 | 4.25 ± 0.04 | 3.3 ± 0.03 | 2.65 ± 0.03

CCCCCCn1cc[n+](C)c1.[Cl-] [1-hexyl-3-methylimidazolium chloride] + O
Details | mass density, 298.15 K [kg/m3] | mass density, 313.15 K [kg/m3] | mass density, 328.15 K [kg/m3] | mass density, 343.15 K [kg/m3] | viscosity, 298.15 K [mPa·s] | viscosity, 313.15 K [mPa·s] | viscosity, 328.15 K [mPa·s] | viscosity, 343.15 K [mPa·s]
x2 = 0 | 1039.67 ± 2.7 | 1031.13 ± 2.7 | 1022.69 ± 2.7 | 1014.34 ± 2.7 | 18089 ± 1800 | 3429 ± 260 | 942.1 ± 52 | 339.5 ± 14
x2 = 0.1274 | 1040.45 ± 2.5 | 1031.89 ± 2.4 | 1023.44 ± 2.4 | 1015.06 ± 2.4 | 7667 ± 670 | 1746 ± 110 | 516.4 ± 23 | 207.4 ± 6.9
x2 = 0.3173 | 1040.7 ± 2 | 1032.22 ± 2 | 1023.8 ± 2 | 1015.5 ± 2 | 1020 ± 56 | 393.5 ± 16 | 165.7 ± 4.6 | 79.07 ± 1.6
x2 = 0.3906 | 1040.95 ± 1.9 | 1032.63 ± 1.8 | 1024.3 ± 1.8 | 1015.77 ± 1.8 | 499.4 ± 21 | 188.9 ± 5.4 | 86.76 ± 1.7 | 45.52 ± 0.81
x2 = 0.5594 | 1041.4 ± 1.5 | 1032.76 ± 1.5 | 1024.14 ± 1.5 | 1015.4 ± 1.4 | 201.2 ± 5.5 | 88.11 ± 1.5 | 44.87 ± 0.65 | 25.37 ± 0.37
x2 = 0.7127 | 1038.77 ± 1.1 | 1029.8 ± 1.1 | 1020.75 ± 1.1 | 1011.45 ± 1.1 | 60.75 ± 0.72 | 30.04 ± 0.36 | 16.83 ± 0.2 | 10.39 ± 0.12
x2 = 0.783 | 1035.72 ± 0.99 | 1026.67 ± 0.98 | 1017.17 ± 0.97 | 1007.71 ± 0.96 | 33.79 ± 0.35 | 17.49 ± 0.18 | 10.17 ± 0.11 | 6.542 ± 0.07
x2 = 0.8935 | 1025.28 ± 0.74 | 1016.2 ± 0.74 | 1006.79 ± 0.73 | 997 ± 0.72 | 8.688 ± 0.078 | 5.191 ± 0.048 | 3.367 ± 0.031 | 2.358 ± 0.022
x2 = 0.9417 | 1018.17 ± 0.64 | 1009.43 ± 0.63 | 1000.13 ± 0.63 | 990.26 ± 0.62 | 3.505 ± 0.03 | 2.323 ± 0.02 | 1.649 ± 0.014 | 1.224 ± 0.011

CCCCn1cc[n+](C)c1.[Cl-] [1-butyl-3-methylimidazolium chloride] + O
Details | mass density, 298.15 K [kg/m3] | mass density, 313.15 K [kg/m3] | mass density, 328.15 K [kg/m3] | mass density, 343.15 K [kg/m3] | viscosity, 298.15 K [mPa·s] | viscosity, 313.15 K [mPa·s] | viscosity, 328.15 K [mPa·s] | viscosity, 343.15 K [mPa·s]
x2 = 0.5666 | 1081 ± 1.5 | 1072 ± 1.5 | 1063.4 ± 1.5 | 1054.7 ± 1.5 | 123.5 ± 3 | 56.63 ± 0.88 | 30.04 ± 0.47 | 17.69 ± 0.27
x2 = 0.607 | 1079.9 ± 1.4 | 1070.8 ± 1.4 | 1062 ± 1.4 | 1053.1 ± 1.4 | 72.16 ± 1.1 | 35.36 ± 0.51 | 19.75 ± 0.28 | 12.2 ± 0.17
x2 = 0.6933 | 1076.5 ± 1.2 | 1067.2 ± 1.2 | 1058.1 ± 1.2 | 1048.8 ± 1.2 | 35.66 ± 0.45 | 18.94 ± 0.24 | 11.32 ± 0.14 | 7.386 ± 0.096
x2 = 0.7698 | 1071.1 ± 1.1 | 1061.5 ± 1 | – | – | 18.08 ± 0.21 | 10.11 ± 0.12 | – | –
x2 = 0.7699 | – | – | 1052.1 ± 1 | 1042.4 ± 1 | – | – | 6.474 ± 0.076 | 4.419 ± 0.053
x2 = 0.8279 | 1063.8 ± 0.9 | 1054.1 ± 0.9 | 1044.5 ± 0.9 | 1034.4 ± 0.9 | 10.19 ± 0.11 | 6.125 ± 0.067 | 4.019 ± 0.045 | 2.858 ± 0.032
x2 = 0.8674 | 1057.1 ± 0.8 | 1047.1 ± 0.8 | 1037.3 ± 0.8 | 1027.1 ± 0.8 | 6.628 ± 0.067 | 4.123 ± 0.043 | 2.795 ± 0.03 | 2.043 ± 0.022
x2 = 0.9194 | 1042.3 ± 0.7 | 1032.8 ± 0.7 | 1023.3 ± 0.7 | 1013.1 ± 0.7 | 3.543 ± 0.035 | 2.311 ± 0.023 | 1.635 ± 0.017 | 1.228 ± 0.013
x2 = 0.9625 | 1022.3 ± 0.6 | 1014 ± 0.6 | 1006.1 ± 0.6 | 996.7 ± 0.6 | 1.886 ± 0.018 | 1.297 ± 0.013 | 0.955 ± 0.009 | 0.741 ± 0.008
x2 = 0.9885 | 1005.2 ± 0.5 | 999.1 ± 0.5 | 989.3 ± 0.5 | 979.6 ± 0.5 | 1.175 ± 0.011 | 0.955 ± 0.009 | 0.753 ± 0.007 | 0.652 ± 0.007
